Measurements taken from patent US20090053192A1, “TISSUE-NONSPECIFIC ALKALINE PHOSPHATASE (TNAP) ACTIVATORS AND USES THEREOF” (BURNHAM INSTITUTE FOR MEDICAL RESEARCH, priority 2007, published 2009).

Legend:
TNAP [1] = target: T1, TNAP (Homo sapiens, UniProt P05186); experiment: luminescent CDP-star-based TNAP assay, MLSMR screen (PubChem AID 518)
T1 sequence (P05186 18-502 limits assumed): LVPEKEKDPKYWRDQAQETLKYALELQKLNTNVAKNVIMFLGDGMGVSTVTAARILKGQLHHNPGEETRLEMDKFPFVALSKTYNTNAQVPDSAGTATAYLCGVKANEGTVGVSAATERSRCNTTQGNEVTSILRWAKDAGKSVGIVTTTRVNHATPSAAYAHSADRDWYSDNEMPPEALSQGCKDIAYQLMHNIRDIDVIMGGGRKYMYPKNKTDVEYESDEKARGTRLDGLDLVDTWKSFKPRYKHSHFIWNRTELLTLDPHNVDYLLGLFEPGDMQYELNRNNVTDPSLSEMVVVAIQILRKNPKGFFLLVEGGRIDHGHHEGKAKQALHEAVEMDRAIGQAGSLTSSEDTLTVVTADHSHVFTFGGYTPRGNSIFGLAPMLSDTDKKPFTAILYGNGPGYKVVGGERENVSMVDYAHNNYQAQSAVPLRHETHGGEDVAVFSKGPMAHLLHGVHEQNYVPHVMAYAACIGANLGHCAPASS
Description: To address this issue, a TNAP assay was developed. This assay is based on the dephosphorylation of a CDP-star® alkaline phosphatase substrate (New England Biolabs, Inc.) designed to detect alkaline phosphatase in blotting techniques (FIG. 6). As with many chemiluminescent reactions, the dioxetane-based reaction represents a sequence of several steps. Dioxetane-phosphate is dephosphorylated by an alkaline phosphatase leading to the generation of an unstable product that decomposes to a stable product with concomitant light production. Once the steady-state of the overall reaction is achieved (in the current reaction it happens within the first 5 min), the luminescence signal output is stable over several hours. As an added bonus, the light intensity of the chemiluminescent reaction is directly proportional to the rate of the TNAP reaction; therefore, the activity of the enzyme can be reliably measured in real-time.
In this table, the column corresponding to TNAP (luminescence) was calculated as (100−X)/100, where X is % inhibition. In some aspects, TNAP activation fact refers to the fold increase in TNAP activity. There are two tiers of data confirmation embedded in the data.

TNAP [2] = target: T1, TNAP; experiment: optimized TNAP activation assay, CAPS buffer pH 9.8, CDP-Star luminescence; type: biochemical
Description: The activity of TNAP (1/800) was measured in 50 mM CAPS, pH 9.8, containing 1 mM MgCl2, 20 uM ZnCl2 and varied concentrations of CDP-Star. The luminescence signal was obtained using 384-well white small-volume plates (Greiner 784075) on a PE Envision plate reader. Experimental data were analyzed using the Michaelis-Menten equation.
The activity of TNAP (1/800) was measured in 50 mM CAPS, pH 9.8, containing 1 mM MgCl2, 20 μM ZnCl2 and 25 μM CDP-Star® in the presence of serially diluted DEA, pH adjusted to 9.8. The luminescence signal, obtained using 384-well white small-volume plate (Greiner 784075) on a PE Envision plate reader, was fitted to 4-parameter sigmoidal equation. The best-fit curve is shown as a solid line.
The luminescent assay was further optimized to ensure its maximum sensitivity to compounds activating TNAP. […] This assay can provide a more accurate measure of phosphatase activity, as opposed to transphosphorylation, activity that might be more relevant to in vivo conditions. The previously utilized assay was performed in the presence DEA at a concentration of CDP-star equal to its Km value. However, the appropriate concentration of the components was needed for the new buffer. TNAP activity vs. its concentration was tested as a function of TNAP concentrations (FIG. 7).
It was observed that TNAP activity was linearly dependent over an extended range of TNAP concentrations. A 1/800 concentration of TNAP was used for further work; this concentration is 1315-fold above the limit of detection of the assay. To ensure that substrate concentration is correctly adjusted in the new assay, TNAP activity was tested in the presence of varied CDP-star® concentrations (FIG. 8). It was decided to fix the concentration of CDP-star® at 25 uM (˜Km) to provide enough sensitivity even for compounds competitive with the CDP-star® substrate. In the next experiment, the activation of TNAP was tested with DEA (FIG. 9).
600 mM DEA (pH 9.8) was chosen as the positive control for TNAP activation screening. […]

[3] = TNAP 1/800, 50 mM CAPS pH 9.8, Michaelis-Menten
[4] = calculated as (100-X)/100, where X is % inhibition, luminescence

| Structure (SMILES) | TNAP Activation Factor (TNAP [1]; [4]) | further results |
| --- | --- | --- |
| OCCN(CCO)c1nc(N2CCCCC2)c2nc(N(CCO)CCO)nc(N3CCCCC3)c2n1 [2,2′,2″,2′″-[4,8-di(piperidin-1-yl)pyrimido[5,4-d]pyrimidine-2,6-diyl]bis(azanetriyl)tetraethanol] | – | TNAP Activation Factor (TNAP [1]; Table 3): 1.6 |
| c1nc(-c2[nH]nc3c2CCC3)n2nc(C3CCCCC3)sc12 [6-cyclohexyl-3-(2,4,5,6-tetrahydrocyclopenta[c]pyrazol-3-yl)-[1,2,4]triazole[3,4-b][1,3,4]thiadiazole] | – | TNAP Activation Factor (TNAP [1]; Table 3): 1.5 |
| COC1(c2ccc(Cl)c(OP(=O)([O-])[O-])c2)OOC12C1CC3CC2CC(Cl)(C3)C1.[Na+].[Na+] (centres unmarked) [CDP-star, Disodium 2-chloro-5-(4-methoxyspiro{1,2-dioxetane-3,2′-(5′-chloro)-ricyclo[3.3.1.13,7]decan}-4-yl)-1-phenyl phosphate] | – | Km (TNAP [2]; [3]): 21.9 ± 3.4 µM; Vmax (TNAP [2]; [3]): 10300±408 RLU |
| N=c1c2c(-c3ccccc3)c(-c3ccccc3)n(Cc3ccccc3)c2ncn1CCCn1ccnc1 [Compound 3] | 4.3 | – |
| CCN(CC)c1ccc2cc(-c3nc4ccccc4n3C)c(=O)oc2c1 [Compound 4] | 2.8 | – |
| Cc1cc(C2N=C(N)Nc3nc4ccccc4n32)c(C)n1-c1ccccc1Cl (centres unmarked) [Compound 6] | 2.2 | – |
| CC(C)n1c(NCc2nc3ccccc3n2C)nc2ccccc21 [Compound 7] | 2.0 | – |
| O=C(CN1C(=O)CCC1=O)Nc1nc(-c2ccccn2)cs1 [Compound 9] | 2.0 | – |
| OCCN1CCOCCN(CCO)CCN(CCO)CC1 [Compound 10] | 1.9 | – |
| Nc1[nH]nc2nc(NCc3ccccc3)c3c(c12)CCN(Cc1ccccc1)C3 [Compound 11] | 1.9 | – |
| COc1ccc(CCNC(=O)c2cc(-c3ccccc3O)[nH]n2)cc1OC [Compound 12] | 1.9 | – |
| Cc1nn2c(O)cc(C(C)(C)C)nc2c1-c1ccccc1 [Compound 13] | 1.8 | – |
| Oc1c(C(c2ccccn2)N2CCOCC2)ccc2cccnc12 (centres unmarked) [Compound 15] | 1.7 | – |
| O=C(CN(Cc1ccco1)C(=O)CNS(=O)(=O)c1ccc(F)cc1)NCc1ccc(F)cc1 [Compound 16] | 1.7 | – |
| Clc1ccc(COC(Cn2ccnc2)c2ccc(Cl)cc2Cl)c(Cl)c1 (centres unmarked) [Compound 17] | 1.7 | – |
| OCCN(CCO)c1cc2c(N3CCCCC3)nc(N(CCO)CCO)nc2c(N2CCCCC2)n1 [Compound 18] | 1.6 | – |
| O=C(Nc1cccc(OC(F)(F)F)c1)c1ccc(Br)o1 [Compound 19] | 1.6 | – |
| NC1=NC2(CCC(c3ccccc3)CC2)n2c(nc3ccccc32)N1 (centres unmarked) [Compound 20] | 1.6 | – |
| O=S(=O)(CCc1ncc(-c2ccccc2)o1)c1ccc2ccccc2c1 [Compound 21] | 1.6 | – |

| Structure (SMILES) | TNAP Activation Factor (TNAP [1]; [4]) | further results |
| --- | --- | --- |
| CCc1ccc(-c2nc(CN3CCC(C(=O)NCCN(CC)c4ccccc4)CC3)c(C)o2)cc1 [Compound 22] | 1.6 | – |
| COc1cccc(N(C(=O)c2cc[nH]n2)C2(C(=O)Nc3c(C)cccc3C)CCCCC2)c1 [Compound 23] | 1.6 | – |
| OCCCN1c2ccccc2Nc2nnc(-c3ccccc3)cc21 [Compound 25] | 1.5 | – |
| C1CCC(c2nn3c(-c4[nH]nc5c4CCC5)nnc3s2)CC1 [Compound 26] | 1.5 | – |
| NC1=NC(c2cn(-c3ccccc3)nc2-c2cccs2)n2c(nc3ccccc32)N1 (centres unmarked) [Compound 28] | 1.5 | – |
| OCCNCCO [DEA, diethanolamine] | – | Maximal activation, higher activity than in the absence of DEA (TNAP [2]; TNAP 1/800, 25 μM CDP-Star, pH 9.8): 9.4 fold |
| O=C(CN1C(=O)CCC1=O)Nc1nc(-c2ccccn2)cs1 [drawing 29, 2-(2,5-dioxopyrrolidin-1-yl)-N-[4-(pyridine-2-yl)thiazol-2-yl]acetamide] | – | TNAP Activation Factor (TNAP [1]; Table 1): 2.0 |
| CC(C)n1c(NCc2nc3ccccc3n2C)nc2ccccc21 [drawing 45, 1-isopropyl-N-[(1-methyl-1H-benzo[d]imidazol-2-yl)methyl]-1H-benzo[d]imidazol-2-amine] | – | TNAP Activation Factor (TNAP [1]; Table 2): 2.0 |
| Nc1[nH]nc2nc(NCc3ccccc3)c3c(c12)CCN(Cc1ccccc1)C3 [drawing 47, N^5,7-dibenzyl-6,7,8,9-tetrahydro-2H-pyrazolo[3,4-c][2,7]napythyridine-1,5-diamine] | – | TNAP Activation Factor (TNAP [1]; Table 2): 1.9 |
| N=c1c2c(-c3ccccc3)c(-c3ccccc3)n(Cc3ccccc3)c2ncn1CCCn1ccnc1 [drawing 64, 3-[3-(1H-imidazol-1-yl)propyl]-7-benzyl-5,6-diphenyl-3H-pyrrolo[2,3-d]pyrimidin-4(7H)-imine] | – | TNAP Activation Factor (TNAP [1]; Table 3): 4.3 |
| Cc1cc(C2N=C(N)Nc3nc4ccccc4n32)c(C)n1-c1ccccc1Cl (centres unmarked) [drawing 66] | – | TNAP Activation Factor (TNAP [1]; Table 3): 2.2 |
| Cc1nn2c(O)cc(C(C)(C)C)nc2c1-c1ccccc1 [drawing 67, 5-tert-butyl-2-methyl-3-phenylpyrazolo[1,5-a]pyrimidin-7-ol] | – | TNAP Activation Factor (TNAP [1]; Table 3): 1.8 |
| Oc1c(C(c2ccccn2)N2CCOCC2)ccc2cccnc12 (centres unmarked) [drawing 68, 7-[morpholino(pyridin-2-yl)methyl]quinolin-8-ol] | – | TNAP Activation Factor (TNAP [1]; Table 3): 1.7 |
| OCCCN1c2ccccc2Nc2nnc(-c3ccccc3)cc21 [drawing 70, 3-(3-phenylpyridazino[3,4-b]quinoxalin-5(10H)-yl)propan-1-ol] | – | TNAP Activation Factor (TNAP [1]; Table 3): 1.5 |
| NC1=NC(c2cn(-c3ccccc3)nc2-c2cccs2)n2c(nc3ccccc32)N1 (centres unmarked) [drawing 72] | – | TNAP Activation Factor (TNAP [1]; Table 3): 1.5 |
| OCCN1CCOCCN(CCO)CCN(CCO)CC1 [drawing 74, 2,2′,2″-(1-oxa-4,7,10-triazacyclododecane-4,7,10-triyl)ethanol] | – | TNAP Activation Factor (TNAP [1]; Table 3): 1.9 |
| COc1ccc(CCNC(=O)c2cc(-c3ccccc3O)[nH]n2)cc1OC [drawing 75, N-(3,4-dimethoxyphenethyl)-5-(2-hydroxyphenyl)-1H-pyrazole-3-carboxamide] | – | TNAP Activation Factor (TNAP [1]; Table 3): 1.9 |
| O=C(CN(Cc1ccco1)C(=O)CNS(=O)(=O)c1ccc(F)cc1)NCc1ccc(F)cc1 [drawing 76, N-[2-(4-fluorobenzylamino)-2-oxoethyl]-2-(4-fluorphenylsulfonamido)-N-(furan-2-ylmethyl)acetamide] | – | TNAP Activation Factor (TNAP [1]; Table 3): 1.7 |
